In ChEMBL document CHEMBL1150189, “Determination of cardenolides in hairy root cultures of Digitalis lanata by enzyme-linked immunosorbent assay” (J Nat Prod, 1990):

Organism: Mus musculus
Assay: Binding affinity to mouse Monoclonal antibody DIG 64.2B.5 by ELISA relative to digoxin

SMILES | Ratio IC50
C[C@H]1O[C@@H](O[C@H]2[C@@H](O)C[C@H](O[C@H]3[C@@H](O)C[C@H](O[C@H]4CC[C@@]5(C)[C@H](CC[C@@H]6[C@@H]5CC[C@]5(C)[C@@H](C7=CC(=O)OC7)[C@@H](O)C[C@]65O)C4)O[C@@H]3C)O[C@@H]2C)C[C@H](O)[C@@H]1O | 46
C[C@H]1OC(O)C[C@H](O)[C@@H]1O (stereo partly specified) | > 1.2e+08
C[C@]12CC[C@H](O)C[C@H]1CC[C@@H]1[C@@H]2C[C@@H](O)[C@]2(C)[C@@H](C3=CC(=O)OC3)CC[C@]12O | 1.2
C[C@@H]1O[C@@H](O[C@H]2C[C@@H](O)[C@]3(CO)[C@H]4[C@H](O)C[C@]5(C)[C@@H](C6=CC(=O)OC6)CC[C@]5(O)[C@@H]4CC[C@]3(O)C2)[C@H](O)[C@H](O)[C@H]1O | > 6e+06
C[C@H]1O[C@@H](O[C@H]2[C@@H](O)C[C@H](O[C@H]3[C@@H](O)C[C@H](O[C@H]4CC[C@@]5(C)[C@H](CC[C@@H]6[C@@H]5CC[C@]5(C)[C@@H](C7=CC(=O)OC7)CC[C@]65O)C4)O[C@@H]3C)O[C@@H]2C)C[C@H](O)[C@@H]1O | 2800
C[C@]12CC[C@H](O)C[C@H]1CC[C@@H]1[C@@H]2CC[C@]2(C)[C@@H](C3=CC(=O)OC3)CC[C@]12O | 23000
C[C@@H]1CC[C@@]2(OC1)O[C@H]1[C@@H](O)[C@H]3[C@@H]4CC[C@H]5C[C@@H](O[C@@H]6O[C@H](CO)[C@H](O[C@@H]7O[C@H](CO)C(O)[C@H](O[C@@H]8OC[C@@H](O)[C@H](O)[C@H]8O)[C@H]7O[C@@H]7O[C@H](CO)[C@H](O)[C@H](O[C@@H]8O[C@H](CO)[C@@H](O)[C@H](O)[C@H]8O)[C@H]7O)[C@H](O)[C@H]6O)[C@H](O)C[C@]5(C)[C@H]4CC[C@]3(C)[C@H]1[C@@H]2C (stereo partly specified) | > 6e+06
CO[C@@H]1[C@@H](O)[C@H](O[C@H]2CC[C@@]3(C)[C@H](CC[C@@H]4[C@@H]3CC[C@]3(C)[C@@H](C5=CC(=O)OC5)[C@@H](O)C[C@]43O)C2)O[C@H](C)[C@@H]1O[C@@H]1O[C@H](CO)[C@@H](O)[C@H](O)[C@H]1O | 16000
CC(=O)O[C@H]1C[C@H](O[C@H]2[C@@H](O)C[C@H](O[C@H]3[C@@H](O)C[C@H](O[C@H]4CC[C@@]5(C)[C@H](CC[C@@H]6[C@@H]5C[C@@H](O)[C@]5(C)[C@@H](C7=CC(=O)OC7)CC[C@]65O)C4)O[C@@H]3C)O[C@@H]2C)O[C@H](C)[C@H]1O[C@@H]1O[C@H](CO)[C@@H](O)[C@H](O)[C@H]1O | 1.2
C[C@]12CC[C@H](O)C[C@H]1CC[C@@H]1[C@@H]2CC[C@]2(C)[C@@H](C3=CC(=O)OC3)[C@@H](O)C[C@]12O | > 540000
C[C@H]1O[C@@H](O[C@H]2CC[C@@]3(C)[C@H](CC[C@@H]4[C@@H]3C[C@@H](O)[C@]3(C)[C@@H](C5=CC(=O)OC5)CC[C@]43O)C2)C[C@H](O)[C@@H]1O[C@H]1C[C@H](O)[C@H](O[C@H]2C[C@H](O)[C@H](O[C@@H]3O[C@H](CO)[C@@H](O)[C@H](O)[C@H]3O)[C@@H](C)O2)[C@@H](C)O1 | 1.8
